Experimental data published in patent publication US12371428B2 (Exelixis, Inc., priority 2019, dated 2025).
Read-outs that look alike come from different tables or passages of the source.

What was measured:
Assay type in all cases: cell-based
[1] = target: KDR (phospho-KDR, VEGF165-stimulated HUVEC cells) (Homo sapiens (Human), UniProt P35968); assay: KDR autophosphorylation ELISA in HUVEC cells (Example G); conditions: cellular activity
Procedure: Human umbilical vein endothelial cells or HUVEC (Lonza #C2519A) were seeded at 2×10^4 cells/well onto 96-well plates (Corning #3904), in EGM-2 growth medium (Lonza #CC-3162) containing 1% Penicillin Streptomycin (Thermo Fisher #15140-122). HUVEC cells were incubated at 37° C., 5% CO2 for 24 h and then starved for 24 h in serum-free EBM-2 basal medium (Lonza #CC-3156) containing 1% Penicillin Streptomycin. Test compounds were serially diluted to produce an 8-point dose curve in fresh serum-free medium to a final concentration of 0.3% DMSO (vehicle) and added to the cells and incubated for 1 h. Cells were then stimulated with 100 ng/mL recombinant human VEGF165 (R&D Systems #293-VE-500) for 5 min, washed with cold PBS, and immediately lysed with […] of cold 1× lysis buffer [20 mM Tris, 137 mM sodium chloride, 2 mM EDTA, 10% glycerol, 1% NP-40 alternative, 1 mM activated sodium orthovanadate, 1 mM PefaBloc SC (Sigma-Aldrich #11429868001), protease/phosphatase inhibitor tablet (Thermo Fisher #A32959)]. Lysates were collected and 100 μL/well added into the human phospho-KDR DuoSet IC ELISA (R&D Systems #DYC1766-2). Assay was performed according to manufacturer's instructions and sample phospho-KDR concentrations were extrapolated using human phospho-KDR control (R&D Systems #841421) as a standard. Positive control wells (100% activity) contained VEGF165-stimulated, DMSO-treated cell lysates. Negative control wells (0% activity) contained non-stimulated cell lysates. IC50 values were calculated by nonlinear regression analysis using a 4-parameter logistic curve fit in ActivityBase XE (IDBS).

[2] = target: Mer (phospho-Mer, MERTK-transfected 293A cells) (Homo sapiens (Human), UniProt Q12866); assay: Mer autophosphorylation ELISA in transient transfected 293A cells (Example H); conditions: cellular activity
Chain of Mer (phospho-Mer, MERTK-transfected 293A cells) (Q12866 21-999): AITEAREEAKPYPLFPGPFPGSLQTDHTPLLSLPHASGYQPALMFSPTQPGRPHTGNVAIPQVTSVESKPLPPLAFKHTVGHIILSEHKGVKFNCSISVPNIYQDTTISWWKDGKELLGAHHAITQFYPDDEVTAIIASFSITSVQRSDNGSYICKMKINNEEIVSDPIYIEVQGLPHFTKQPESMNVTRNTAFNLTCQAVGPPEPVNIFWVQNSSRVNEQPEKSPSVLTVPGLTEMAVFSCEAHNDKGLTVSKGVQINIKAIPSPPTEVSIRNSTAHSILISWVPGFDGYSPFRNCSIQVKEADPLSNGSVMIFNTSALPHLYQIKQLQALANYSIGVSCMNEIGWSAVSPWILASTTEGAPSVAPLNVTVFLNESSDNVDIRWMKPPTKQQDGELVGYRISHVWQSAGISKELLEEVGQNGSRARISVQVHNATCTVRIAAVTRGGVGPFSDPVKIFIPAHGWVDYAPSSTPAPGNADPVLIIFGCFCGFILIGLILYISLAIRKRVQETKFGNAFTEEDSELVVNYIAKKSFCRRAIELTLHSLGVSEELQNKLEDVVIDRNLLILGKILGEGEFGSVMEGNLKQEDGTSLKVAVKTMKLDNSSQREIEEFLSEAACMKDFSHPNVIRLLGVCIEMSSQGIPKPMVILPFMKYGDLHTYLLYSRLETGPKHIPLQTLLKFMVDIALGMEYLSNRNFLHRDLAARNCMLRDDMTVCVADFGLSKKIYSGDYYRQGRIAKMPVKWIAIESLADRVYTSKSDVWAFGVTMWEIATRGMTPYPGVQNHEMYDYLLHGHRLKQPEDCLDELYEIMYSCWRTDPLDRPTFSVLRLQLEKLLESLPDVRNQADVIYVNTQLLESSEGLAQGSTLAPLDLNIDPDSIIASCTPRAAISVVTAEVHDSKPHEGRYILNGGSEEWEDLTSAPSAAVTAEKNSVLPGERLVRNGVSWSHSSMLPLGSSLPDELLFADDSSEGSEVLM
Procedure: 293A cells (Thermo Fisher #R70507) were seeded at 1.5×10^6 cells/well onto 100 mm dish (Greiner #664169), in DMEM (Thermo Fisher #11995-040) containing 10% FBS (Thermo Fisher #26140-079), 1% MEM NEAA (Thermo Fisher #11140-050), 1% GlutaMax (Thermo Fisher #35050-061), and 1% Penicillin Streptomycin (Thermo Fisher #15140-122). 293A cells were incubated at 37° C., 5% CO2 for 24 h and then transfected with […] MERTK DNA (Genecopoeia #EX-Z8208-M02) using TransIT LT1 transfection reagent (Mirus-Bio #MIR2305). After 24 h incubation, the transfected 293A cells were seeded at 1×10^5 cells/well onto 96-well plates (Corning #3904) in DMEM growth medium overnight. Test compounds were serially diluted to produce an 8-point dose curve in fresh serum-free medium to a final concentration of 0.3% DMSO (vehicle) and added to the cells and incubated for 1 h. Cells were then immediately lysed with 150 μL of cold 1× lysis buffer [20 mM Tris, 137 mM sodium chloride, 2 mM EDTA, 10% glycerol, 1% NP-40 alternative, 1 mM activated sodium orthovanadate, 1 mM PefaBloc SC (Sigma-Aldrich #11429868001), protease/phosphatase inhibitor tablet (Thermo Fisher #A32959)]. Lysates were clarified by centrifugation and 50 µL/well added in to the human phospho-Mer DuoSet IC ELISA (R&D Systems #DYC2579-2). Assay was performed according to manufacturer's instructions and sample phospho-Mer concentrations were extrapolated using human phospho-Mer control (R&D Systems #841793) as a standard. Positive control wells (100% activity) contained DMSO-treated cell lysates. Negative control wells (0% activity) contained reference inhibitor-treated cell lysates. IC50 values were calculated by nonlinear regression analysis using a 4-parameter logistic curve fit in ActivityBase XE (JDBS).

[3] = target: Met (phospho-Met, HGF-stimulated PC-3 prostate cancer cells) (Homo sapiens (Human), UniProt P08581); assay: Met autophosphorylation ELISA in PC-3 cells (Example F); conditions: cellular activity, read-out: c-Met IC50
Chain of Met (phospho-Met, HGF-stimulated PC-3 prostate cancer cells) (P08581 25-1390): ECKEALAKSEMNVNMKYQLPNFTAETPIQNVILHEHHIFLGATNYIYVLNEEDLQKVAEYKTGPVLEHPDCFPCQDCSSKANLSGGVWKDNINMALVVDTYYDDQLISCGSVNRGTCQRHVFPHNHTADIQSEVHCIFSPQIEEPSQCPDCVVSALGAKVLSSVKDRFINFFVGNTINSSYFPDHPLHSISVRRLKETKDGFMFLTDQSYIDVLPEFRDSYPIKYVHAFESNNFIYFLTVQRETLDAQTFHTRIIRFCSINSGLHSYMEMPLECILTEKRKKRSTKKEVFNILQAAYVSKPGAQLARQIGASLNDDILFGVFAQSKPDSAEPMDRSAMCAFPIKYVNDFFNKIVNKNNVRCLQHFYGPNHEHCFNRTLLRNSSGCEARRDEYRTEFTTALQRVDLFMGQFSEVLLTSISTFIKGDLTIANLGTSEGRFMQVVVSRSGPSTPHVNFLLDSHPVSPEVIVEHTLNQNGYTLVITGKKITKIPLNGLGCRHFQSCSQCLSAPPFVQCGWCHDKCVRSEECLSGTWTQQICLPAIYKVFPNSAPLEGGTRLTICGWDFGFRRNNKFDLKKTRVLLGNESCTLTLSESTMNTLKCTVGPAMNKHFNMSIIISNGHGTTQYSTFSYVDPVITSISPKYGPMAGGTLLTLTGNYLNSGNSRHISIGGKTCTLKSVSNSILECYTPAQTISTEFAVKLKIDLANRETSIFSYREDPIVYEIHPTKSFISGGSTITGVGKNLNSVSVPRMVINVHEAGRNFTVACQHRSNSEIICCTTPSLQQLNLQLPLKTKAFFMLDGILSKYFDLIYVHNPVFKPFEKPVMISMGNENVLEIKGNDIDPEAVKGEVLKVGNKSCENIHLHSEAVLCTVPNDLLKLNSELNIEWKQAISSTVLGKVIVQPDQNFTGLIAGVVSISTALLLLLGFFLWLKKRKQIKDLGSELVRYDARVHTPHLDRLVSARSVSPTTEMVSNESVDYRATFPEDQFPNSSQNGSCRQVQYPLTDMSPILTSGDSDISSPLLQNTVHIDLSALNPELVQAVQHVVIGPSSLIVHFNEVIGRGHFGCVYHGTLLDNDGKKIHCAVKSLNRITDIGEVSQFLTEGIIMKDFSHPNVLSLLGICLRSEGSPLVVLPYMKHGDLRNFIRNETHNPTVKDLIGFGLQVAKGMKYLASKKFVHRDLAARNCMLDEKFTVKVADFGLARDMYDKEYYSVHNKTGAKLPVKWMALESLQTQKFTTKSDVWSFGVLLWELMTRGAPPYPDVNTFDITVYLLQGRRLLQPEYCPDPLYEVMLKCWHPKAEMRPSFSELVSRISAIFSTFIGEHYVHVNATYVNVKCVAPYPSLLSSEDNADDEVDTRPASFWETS
Procedure: PC-3 prostate cancer cells (ATCC #CRL-1435) were seeded at 4×10^4 cells/well onto 24-well plates (Greiner #662165), in DMEM (Thermo Fisher #11995-040) containing 10% FBS (Thermo Fisher #26140-079), 1% MEM NEAA (Thermo Fisher #11140-050), 1% GlutaMax (Thermo Fisher #35050-061), and 1% Penicillin Streptomycin (Thermo Fisher #15140-122). PC-3 cells were incubated at 37° C., 5% CO2 for 24 h and then starved for 3 h in serum-free medium. Test compounds were serially diluted to produce an 8-point dose curve in fresh serum-free medium to a final concentration of 0.3% DMSO (vehicle) and added to the cells and incubated for 1 h. Cells were then stimulated with 100 ng/mL recombinant human HGF (R&D Systems #294-HG-250) for 10 min, washed with cold PBS, and immediately lysed with […] of cold 1× lysis buffer [20 mM Tris, 137 mM sodium chloride, 2 mM EDTA, 10% glycerol, 1% NP-40 alternative, 1 mM activated sodium orthovanadate, 1 mM PefaBloc SC (Sigma-Aldrich #11429868001), protease/phosphatase inhibitor tablet (Thermo Fisher #A32959)]. Lysates were clarified by centrifugation and 100 μL/well added into the PathScan phospho-Met (panTyr) Sandwich ELISA (Cell Signaling Technology #7333). Assay was performed according to manufacturer's instructions. Positive control wells (100% activity) contained HGF-stimulated, DMSO-treated cell lysates. Negative control wells (0% activity) contained HGF-stimulated, reference inhibitor-treated cell lysates. IC50 values were calculated by nonlinear regression analysis using a 4-parameter logistic curve fit in ActivityBase XE (IDBS).

[4] = KDR autophosphorylation ELISA in HUVEC cells
[5] = Mer autophosphorylation ELISA in transient transfected 293A cells
[6] = Met autophosphorylation ELISA in PC-3 cells

Chain of KDR (phospho-KDR, VEGF165-stimulated HUVEC cells) (P35968 20-1356): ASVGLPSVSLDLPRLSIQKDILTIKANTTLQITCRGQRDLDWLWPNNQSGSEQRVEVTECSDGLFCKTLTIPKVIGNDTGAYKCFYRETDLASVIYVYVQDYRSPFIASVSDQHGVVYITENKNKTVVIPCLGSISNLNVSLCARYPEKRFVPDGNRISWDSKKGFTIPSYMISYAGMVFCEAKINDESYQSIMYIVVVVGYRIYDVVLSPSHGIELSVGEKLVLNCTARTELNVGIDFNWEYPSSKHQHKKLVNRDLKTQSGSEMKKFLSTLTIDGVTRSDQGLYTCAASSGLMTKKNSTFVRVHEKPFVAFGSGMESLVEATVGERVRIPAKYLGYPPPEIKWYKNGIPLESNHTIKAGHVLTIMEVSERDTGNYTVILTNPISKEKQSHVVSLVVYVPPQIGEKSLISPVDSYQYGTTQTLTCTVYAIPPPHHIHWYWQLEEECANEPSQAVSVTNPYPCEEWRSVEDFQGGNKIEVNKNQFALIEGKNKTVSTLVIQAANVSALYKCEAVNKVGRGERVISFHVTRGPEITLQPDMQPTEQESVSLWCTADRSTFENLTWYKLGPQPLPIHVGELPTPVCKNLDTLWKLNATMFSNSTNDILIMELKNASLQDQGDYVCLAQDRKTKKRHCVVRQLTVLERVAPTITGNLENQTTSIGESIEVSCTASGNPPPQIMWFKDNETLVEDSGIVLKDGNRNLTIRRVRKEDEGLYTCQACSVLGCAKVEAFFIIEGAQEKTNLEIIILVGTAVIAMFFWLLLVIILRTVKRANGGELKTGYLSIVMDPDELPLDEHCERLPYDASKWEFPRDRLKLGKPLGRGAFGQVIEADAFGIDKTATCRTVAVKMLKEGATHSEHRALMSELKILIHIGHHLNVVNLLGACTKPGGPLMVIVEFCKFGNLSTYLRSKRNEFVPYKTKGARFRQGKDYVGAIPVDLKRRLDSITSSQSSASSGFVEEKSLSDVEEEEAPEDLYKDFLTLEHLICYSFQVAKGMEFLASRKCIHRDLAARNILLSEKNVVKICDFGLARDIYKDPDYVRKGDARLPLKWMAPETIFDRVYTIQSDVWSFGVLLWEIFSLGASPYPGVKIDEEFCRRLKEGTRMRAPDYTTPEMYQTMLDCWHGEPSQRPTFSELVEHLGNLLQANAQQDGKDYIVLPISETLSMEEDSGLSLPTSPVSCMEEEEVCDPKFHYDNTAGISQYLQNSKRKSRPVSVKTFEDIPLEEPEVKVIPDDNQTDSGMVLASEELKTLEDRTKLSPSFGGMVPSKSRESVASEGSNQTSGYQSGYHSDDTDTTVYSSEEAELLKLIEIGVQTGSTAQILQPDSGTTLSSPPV

Row | Compound | IC50 [1, 4] [nM] | IC50 [2, 5] [nM] | IC50 [3, 6] [nM] | IC50 ([1]; HUVEC cells) [nM] | IC50 ([2]; transfected 293A cells) [nM] | IC50 ([3]; PC-3 cells) [nM]
1 | COc1cc(-c2c(C)nc(C)c(C(=O)Nc3ccc(Oc4ccnc5cc(OC)c(OC)nc45)c(F)c3)c2O)ccc1F [Compound 709, N-[4-[(6,7-dimethoxy-1,5-naphthyridin-4-yl)oxy]-3-fluorophenyl]-5-(4-fluoro-3-methoxyphenyl)-4-hydroxy-2,6-dimethylpyridine-3-carboxamide] | < 100 | < 100 | < 100 | – | – | –
2 | COc1cnc2c(Oc3ccc(NC(=O)c4c(C)n(C)c(C)c(-c5ccc(F)cc5OC)c4=O)cc3F)ccnc2c1 [Compound 818, N-[3-fluoro-4-[(7-methoxy-1,5-naphthyridin-4-yl)oxy]phenyl]-5-(4-fluoro-2-methoxyphenyl)-1,2,6-trimethyl-4-oxopyridine-3-carboxamide] | – | – | – | > 300 | < 100 | < 100
3 | COc1cnc2c(Oc3cc(F)c(NC(=O)c4c(C)nc(C)c(-c5ccc(F)cc5F)c4O)cc3F)ccnc2c1 [Compound 779, N-[2,5-difluoro-4-[(7-methoxy-1,5-naphthyridin-4-yl)oxy]phenyl]-5-(2,4-difluorophenyl)-4-hydroxy-2,6-dimethylpyridine-3-carboxamide] | < 100 | < 100 | < 100 | – | – | –
4 | COc1cnc2c(Oc3ccc(NC(=O)c4c(C)n(CC(F)F)cc(-c5ccc(F)c(F)c5)c4=O)cc3F)ccnc2c1 [Compound 817, 1-(2,2-difluoroethyl)-5-(3,4-difluorophenyl)-N-[3-fluoro-4-[(7-methoxy-1,5-naphthyridin-4-yl)oxy]phenyl]-2-methyl-4-oxopyridine-3-carboxamide] | – | – | – | > 300 | < 100 | < 100
5 | COc1cnc2c(Oc3ccc(NC(=O)c4c(C)n(C)c(C)c(-c5ccc(F)c(C)c5)c4=O)cc3F)ccnc2c1 [Compound 819, N-[3-fluoro-4-[(7-methoxy-1,5-naphthyridin-4-yl)oxy]phenyl]-5-(4-fluoro-3-methylphenyl)-1,2,6-trimethyl-4-oxopyridine-3-carboxamide] | – | – | – | > 300 | < 100 | < 100
6 | CCOc1ccn(-c2ccc(F)cc2)c(=O)c1C(=O)Nc1ccc(Oc2ccnc3cc(OC)cnc23)cc1 [Compound 717, 4-ethoxy-1-(4-fluorophenyl)-N-[4-[(7-methoxy-1,5-naphthyridin-4-yl)oxy]phenyl]-2-oxopyridine-3-carboxamide] | > 300 | < 100 | < 100 | – | – | –
7 | COCc1nc(C)c(-c2ccc(F)cc2F)c(O)c1C(=O)Nc1cc(F)c(Oc2ccnc3cc(OC)c(OC)nc23)cc1F [Compound 778, 5-(2,4-difluorophenyl)-N-[4-[(6,7-dimethoxy-1,5-naphthyridin-4-yl)oxy]-2,5-difluorophenyl]-4-hydroxy-2-(methoxymethyl)-6-methylpyridine-3-carboxamide] | < 100 | < 100 | < 100 | – | – | –
8 | COc1cc2nccc(Oc3ccc(NC(=O)c4c5n(c(C)c(-c6ccc(F)cc6)c4=O)CCOC5)cc3F)c2nc1OC [Compound 775, N-[4-[(6,7-dimethoxy-1,5-naphthyridin-4-yl)oxy]-3-fluorophenyl]-7-(4-fluorophenyl)-6-methyl-8-oxo-3,4-dihydro-1H-pyrido[2,1-c][1,4]oxazine-9-carboxamide] | < 100 | < 100 | < 100 | – | – | –
9 | COc1cnc2c(Oc3ccc(NC(=O)c4c(C)n(CC(F)(F)F)cc(-c5ccc(F)cc5)c4=O)cc3F)ccnc2c1 [Compound 790, N-[3-fluoro-4-[(7-methoxy-1,5-naphthyridin-4-yl)oxy]phenyl]-5-(4-fluorophenyl)-2-methyl-4-oxo-1-(2,2,2-trifluoroethyl)pyridine-3-carboxamide] | > 300 | < 100 | < 100 | – | – | –
10 | CCOc1ccn(-c2ccc(F)cc2)c(=O)c1C(=O)Nc1ccc(Oc2ccnc3cc(OC)c(OC)nc23)c(F)c1 [Compound 715, N-[4-[(6,7-dimethoxy-1,5-naphthyridin-4-yl)oxy]-3-fluorophenyl]-4-ethoxy-1-(4-fluorophenyl)-2-oxopyridine-3-carboxamide] | < 100 | < 100 | < 100 | – | – | –
11 | COc1cc2nccc(Oc3ccc(NC(=O)c4c(C)n(C(F)F)cc(-c5ccc(F)cc5)c4=O)cc3F)c2nc1OC [Compound 729, 1-(difluoromethyl)-N-[4-[(6,7-dimethoxy-1,5-naphthyridin-4-yl)oxy]-3-fluorophenyl]-5-(4-fluorophenyl)-2-methyl-4-oxopyridine-3-carboxamide] | < 100 | < 100 | < 100 | – | – | –
12 | COc1cc2nccc(Oc3ccc(NC(=O)c4c(C)n(CCF)cc(-c5ccc(F)cc5C)c4=O)cc3F)c2nc1OC [Compound 756, N-[4-[(6,7-dimethoxy-1,5-naphthyridin-4-yl)oxy]-3-fluorophenyl]-1-(2-fluoroethyl)-5-(4-fluoro-2-methylphenyl)-2-methyl-4-oxopyridine-3-carboxamide] | < 100 | < 100 | < 100 | – | – | –
13 | COc1cnc2c(Oc3ccc(NC(=O)c4cnc(C)c(-c5ccc(C(C)C)cc5)c4O)cc3F)ccnc2c1 [Compound 705, N-[3-fluoro-4-[(7-methoxy-1,5-naphthyridin-4-yl)oxy]phenyl]-4-hydroxy-6-methyl-5-(4-propan-2-ylphenyl)pyridine-3-carboxamide] | > 300 | < 100 | < 100 | – | – | –
14 | COc1cc2nccc(Oc3ccc(NC(=O)c4c(C)nc(C)c(-c5ccc(F)c(F)c5)c4O)cc3F)c2nc1OC [Compound 708, 5-(3,4-difluorophenyl)-N-[4-[(6,7-dimethoxy-1,5-naphthyridin-4-yl)oxy]-3-fluorophenyl]-4-hydroxy-2,6-dimethylpyridine-3-carboxamide] | < 100 | < 100 | < 100 | – | – | –
15 | COc1cc2nccc(Oc3ccc(NC(=O)c4c(C)n(C)c(C)c(-c5ccc(F)c(F)c5)c4=O)cc3F)c2nc1OC [Compound 822, 5-(3,4-difluorophenyl)-N-[4-[(6,7-dimethoxy-1,5-naphthyridin-4-yl)oxy]-3-fluorophenyl]-1,2,6-trimethyl-4-oxopyridine-3-carboxamide] | – | – | – | > 300 | < 100 | < 100
